For 18 molecules, IC50 and inhibition results are on record in patent US9440982B2 (Eolas Therapeutics, Inc., priority 2012, dated 2016).

Where two headings read alike, the source gives them in different places.

Usually inhibition stands for how much of the control response was suppressed. A lower inhibition goes with a response near the control.

One series deals with T1, OX1 (Homo sapiens, UniProt O43613).
T1 construct: expressed in transfected cells; host or cells: CHO (CHO-OX1, kept under selection antibiotic)
T1 sequence (O43613 1-425): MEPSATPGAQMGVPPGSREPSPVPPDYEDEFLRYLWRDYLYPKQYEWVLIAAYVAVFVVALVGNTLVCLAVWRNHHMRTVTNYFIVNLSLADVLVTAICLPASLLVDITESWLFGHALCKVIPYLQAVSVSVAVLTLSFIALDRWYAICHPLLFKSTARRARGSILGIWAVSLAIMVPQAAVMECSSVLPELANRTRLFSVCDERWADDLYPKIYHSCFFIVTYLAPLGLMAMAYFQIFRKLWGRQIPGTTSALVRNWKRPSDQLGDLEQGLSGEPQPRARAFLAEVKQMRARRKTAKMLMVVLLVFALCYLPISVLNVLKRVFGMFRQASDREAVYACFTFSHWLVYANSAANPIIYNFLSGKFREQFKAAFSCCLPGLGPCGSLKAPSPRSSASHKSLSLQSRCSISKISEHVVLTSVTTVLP
Briefly: Orexin receptor cell-based functional assay, [Ca2+]i by FLIPR, CHO-OX1 cells. In a few lines:
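Antagonist mode FLIPR calcium read in CHO-OX1 and CHO-OX2 lines. Test compounds, dosed 0.1 nM-10 μM, preincubated 30 min after 37° C dye loading with 2.5 mM probenecid (calcium4 for 30 min or calcium6 for 2 h).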

The next series addresses T2, CYP3A4 (Homo sapiens, UniProt P08684).
T2 construct: pre-incubated with human liver microsomes and NADPH; from tissue; host or cells: human liver microsomes
The series is described as follows: Cytochrome P450 inhibition assay (midazolam hydroxylation). The format is in vitro ADME. The following applies: human, human liver microsomes, probe midazolam (hydroxylation to 1′-hydroxymidazolam), 10 μM test compound, midazolam at approximately its Km. In a few lines: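 Percent inhibition of midazolam 1′-hydroxylation by 10 μM compound was measured, midazolam dosed at about Km. Time-dependent inhibition was probed by a 30 min preincubation of compound with human liver microsomes and NADPH ahead of substrate, compared against samples without preincubation.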
(Microsomes from liver hold many membrane-bound enzymes, among them those of drug oxidation.)

Where [1] appears, read: CHO-OX1 cells, [Ca2+]i by FLIPR, antagonist dose-range 0.1 nM-10 μM, EC90 of OXA, read-out: OX1.

T2 sequence (P08684 whole entry): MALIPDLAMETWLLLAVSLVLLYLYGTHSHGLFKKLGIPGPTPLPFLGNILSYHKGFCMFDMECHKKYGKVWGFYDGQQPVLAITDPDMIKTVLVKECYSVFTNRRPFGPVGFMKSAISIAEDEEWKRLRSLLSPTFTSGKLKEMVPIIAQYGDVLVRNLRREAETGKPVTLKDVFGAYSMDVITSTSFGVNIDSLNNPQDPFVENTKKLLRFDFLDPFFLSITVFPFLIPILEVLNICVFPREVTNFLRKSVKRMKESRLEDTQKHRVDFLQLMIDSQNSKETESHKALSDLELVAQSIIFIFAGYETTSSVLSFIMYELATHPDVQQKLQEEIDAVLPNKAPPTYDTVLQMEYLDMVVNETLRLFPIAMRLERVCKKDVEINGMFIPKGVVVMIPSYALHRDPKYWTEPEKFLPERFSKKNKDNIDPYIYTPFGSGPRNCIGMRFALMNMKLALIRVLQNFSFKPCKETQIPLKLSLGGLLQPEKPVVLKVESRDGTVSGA

Regarding `Cc1ccc(-c2cnn(C)c2)c(C(=O)N2CCC[C@@H](C)[C@H]2CNc2nc3ccc(Cl)cc3o2)c1` [Example A10, ((2S,3R)-2-(((6-Chlorobenzo[d]oxazol-2-yl)amino)methyl)-3-methylpiperidin-1-yl)(5-methyl-2-(1-methyl-1H-pyrazol-4-yl)phenyl)methanone], the IC50 on OX1 (setting [1]) is 81 nM. The same molecule displayed an inhibition at 10 µM against CYP3A4 of 98%.

For `Cc1ccc(-n2nccn2)c(C(=O)N2CCC[C@@H](C)[C@H]2CNc2nc3cc(Cl)ccc3o2)c1` [Example A11, ((2S,3R)-2-(((5-Chlorobenzo[d]oxazol-2-yl)amino)methyl)-3-methylpiperidin-1-yl)(5-methyl-2-(2H-1,2,3-triazol-2-yl)phenyl)methanone], the IC50 at OX1 (setting [1]) was found to be 3 nM. Besides, at CYP3A4, the inhibition at 10 µM came out at 78%.

In the case of `Cc1ccc(-c2cnn(C)c2)c(C(=O)N2CCC[C@@H](C)[C@H]2CNc2nc3cc(Cl)ccc3o2)c1` [Example A12, ((2S,3R)-2-(((5-chlorobenzo[d]oxazol-2-yl)amino)methyl)-3-methylpiperidin-1-yl)(5-methyl-2-(1-methyl-1H-pyrazol-4-yl)phenyl)methanone], at OX1 (setting [1]), the IC50 was 20 nM. The same molecule yielded an inhibition at 10 µM on CYP3A4 of 98%.

For `Cc1ccc(-n2nccn2)c(C(=O)N2CCC[C@@H](C)[C@H]2CNc2nc3ccc(Cl)cc3o2)c1` [Example A14, ((2S,3R)-2-(((6-Chlorobenzo[d]oxazol-2-yl)amino)methyl)-3-methylpiperidin-1-yl)(5-methyl-2-(2H-1,2,3-triazol-2-yl)phenyl)methanone], the IC50 at OX1 (setting [1]) worked out at 10 nM. For the same molecule, 10 µM produced 80% inhibition against CYP3A4.

As for `Cc1ccc(-n2ncnc2C)c(C(=O)N2CCC[C@@H](C)[C@H]2CNc2ccc(C(F)(F)F)cn2)c1` [Example A16, ((2S,3R)-3-Methyl-2-(((5-(trifluoromethyl)pyridin-2-yl)amino)methyl)piperidin-1-yl)(5-methyl-2-(5-methyl-1H-1,2,4-triazol-1-yl)phenyl)methanone], the IC50 at OX1 (setting [1]) was 260 nM. The inhibition at 10 µM against CYP3A4 stood at 96%.

Consider `Cc1ccc(-n2cnc(C)n2)c(C(=O)N2CCC[C@@H](C)[C@H]2CNc2ccc(C(F)(F)F)cn2)c1` [Example A17, ((2S,3R)-3-Methyl-2-(((5-(trifluoromethyl)pyridin-2-yl)amino)methyl)piperidin-1-yl)(5-methyl-2-(3-methyl-1H-1,2,4-triazol-1-yl)phenyl)methanone], for which, at OX1 (setting [1]), the IC50 was found to be 20 nM. The inhibition at 10 µM at CYP3A4 is 95%.

As for `Cc1ccc(-c2ccn(C)n2)c(C(=O)N2CCC[C@@H](C)[C@H]2CNc2ccc(C(F)(F)F)cn2)c1` [Example A18, ((2S,3R)-3-Methyl-2-(((5-(trifluoromethyl)pyridin-2-yl)amino)methyl)piperidin-1-yl)(5-methyl-2-(1-methyl-1H-pyrazol-3-yl)phenyl)methanone], the IC50 on OX1 (setting [1]) was 7 nM. On CYP3A4, this molecule registered an inhibition at 10 µM of 95%.

Take `Cc1ccc(-c2cnccn2)c(C(=O)N2CCC[C@@H](C)[C@H]2CNc2ccc(C(F)(F)F)cn2)c1` [Example A19, ((2S,3R)-3-Methyl-2-(((5-(trifluoromethyl)pyridin-2-yl)amino)methyl)piperidin-1-yl)(5-methyl-2-(pyrazin-2-yl)phenyl)methanone]: the IC50 on OX1 (setting [1]) turned out to be 4 nM. At CYP3A4, this molecule displayed an inhibition at 10 µM of 96%.

As to `Cc1ccc(-c2nccn2C)c(C(=O)N2CCC[C@@H](C)[C@H]2CNc2ccc(C(F)(F)F)cn2)c1` [Example A20, ((2S,3R)-3-Methyl-2-(((5-(trifluoromethyl)pyridin-2-yl)amino)methyl)piperidin-1-yl)(5-methyl-2-(1-methyl-1H-imidazol-2-yl)phenyl)methanone], at OX1 (setting [1]), the IC50 was determined as 37 nM. The molecule further showed an inhibition at 10 µM at CYP3A4 of 83%.

As for `COc1ccnc(-c2ccc(C)cc2C(=O)N2CCC[C@@H](C)[C@H]2CNc2ccc(C(F)(F)F)cn2)n1` [Example A21, (2-(4-Methoxypyrimidin-2-yl)-5-methylphenyl)((2S,3R)-3-methyl-2-(((5-(trifluoromethyl)pyridin-2-yl)amino)methyl)piperidin-1-yl)methanone], the IC50 at OX1 (setting [1]) worked out at 13 nM. The inhibition at 10 µM against CYP3A4 was 89%.

Consider `Cc1ccc(-c2nn[nH]n2)c(C(=O)N2CCC[C@@H](C)[C@H]2CNc2ccc(C(F)(F)F)cn2)c1` [Example A23, ((2S,3R)-3-Methyl-2-(((5-(trifluoromethyl)pyridin-2-yl)amino)methyl)piperidin-1-yl)(5-methyl-2-(2H-tetrazol-5-yl)phenyl)methanone], for which the IC50 at OX1 (setting [1]) is over 1000 nM. Further, the inhibition at 10 µM on CYP3A4 was 75%.

Turning to `Cc1ccc(-c2nccs2)c(C(=O)N2CCC[C@@H](C)[C@H]2CNc2ccc(C(F)(F)F)cn2)c1` [Example A24, ((2S,3R)-3-Methyl-2-(((5-(trifluoromethyl)pyridin-2-yl)amino)methyl)piperidin-1-yl)(5-methyl-2-(thiazol-2-yl)phenyl)methanone], the IC50 on OX1 (setting [1]) came to 11 nM. At 10 µM the inhibition at CYP3A4 was 97%.

`Cc1ccc(-n2cnc(C)n2)c(C(=O)N2CCC[C@@H](C)[C@H]2CNc2nc3cc(Cl)ccc3o2)c1` [Example A29, ((2S,3R)-2-(((5-Chlorobenzo[d]oxazol-2-yl)amino)methyl)-3-methylpiperidin-1-yl)(5-methyl-2-(3-methyl-1H-1,2,4-triazol-1-yl)phenyl)methanone]: the IC50 on OX1 (setting [1]) was 87 nM. Besides, at 10 µM the inhibition against CYP3A4 was 91%.

In the case of `Cc1ccc(-c2ccnc(C)c2)c(C(=O)N2CCC[C@@H](C)[C@H]2CNc2nc3cc(Cl)ccc3o2)c1` [Example A37, ((2S,3R)-2-(((5-Chlorobenzo[d]oxazol-2-yl)amino)methyl)-3-methylpiperidin-1-yl)(5-methyl-2-(2-methylpyridin-4-yl)phenyl)methanone], the IC50 on OX1 (setting [1]) amounted to 4 nM. The inhibition at 10 µM on CYP3A4 is 96%.

As for `Cc1nc(C(=O)N2CCC[C@@H](C)[C@H]2CNc2ncc(Cl)cn2)c(-c2ccc(F)cc2)s1` [Example A41, ((2S,3R)-2-(((5-Chloropyrimidin-2-yl)amino)methyl)-3-methylpiperidin-1-yl)(5-(4-fluorophenyl)-2-methylthiazol-4-yl)methanone], the IC50 on OX1 (setting [1]) was 4 nM. This molecule also yielded an inhibition at 10 µM against CYP3A4 of 52%.

For `Cc1nc(C(=O)N2CCC[C@H](C)[C@@H]2CNc2ccc(C(F)(F)F)cn2)c(-c2ccc(F)cc2)s1` [Example A43, (5-(4-Fluorophenyl)-2-methylthiazol-4-yl)((2R,3S)-3-methyl-2-(((5-(trifluoromethyl)pyridin-2-yl)amino)methyl)piperidin-1-yl)methanone], the IC50 at OX1 (setting [1]) turned out to be 670 nM; at OX1 (Table 6, racemate vs enantiomers, read-out: OX1 IC50), 670 nM. Also, the inhibition at 10 µM against CYP3A4 amounted to 55%.

`Cc1ccc(-n2nccn2)c(C(=O)N2CCC[C@@H](C)[C@H]2CNc2ccc(F)cn2)c1` [Example A47, ((2S,3R)-2-(((5-Fluoropyridin-2-yl)amino)methyl)-3-methylpiperidin-1-yl)(5-methyl-2-(2H-1,2,3-triazol-2-yl)phenyl)methanone]: at OX1 (setting [1]), the IC50 stood at 150 nM. The molecule further yielded an inhibition at 10 µM at CYP3A4 of 56%.

With `Cc1ccc(NC[C@@H]2[C@H](C)CCCN2C(=O)c2cc(C)ccc2-c2ccccn2)nc1` [Example A59, ((2S,3R)-3-Methyl-2-(((5-methylpyridin-2-yl)amino)methyl)piperidin-1-yl)(5-methyl-2-(pyridin-2-yl)phenyl)methanone], the IC50 on OX1 (setting [1]) stood at 50 nM. At CYP3A4, testing at 10 µM gave an inhibition of 87%.
